Counter-ions that a name gives are not always drawn.
What follows are compounds tested against factor Xa (Homo sapiens, UniProt P00742) (assay: In vitro Factor Xa assay (Test 1a), chromogenic substrate S-2765). Details: Factor Xa inhibitory activity; Ki from IC50 corrected for substrate competition; 0.5 nM enzyme, 140 μM S-2765, 25° C.
Assay type: biochemical
Parameters: purchased Enzyme Research Laboratories, Inc; South Bend, Ind
Description: The ability of a compound of formula I to inhibit factor Xa, thrombin, plasmin, elastase and trypsin may be assessed by determining the concentration of compound of formula I that inhibits enzyme activity by 50% (IC50). Purified enzymes are used in chromogenic assays. To determine the inhibition constant, the IC50 value is corrected for competition with substrate using the formula:
Ki=IC50×(1/{1+((substrate concentration)/substrate Km)})
where Km is the Michaelis-Menten-constant (Y.-C. Chen and W.H. Prusoff, Biochem. Pharmacol. 22: […] (1973), which is incorporated herein by reference).
TBS-PEG buffer (50 mM Tris-Cl, pH 7.8, 200 mM NaCl, 0.05% (w/v) PEG-8000, 0.02% (w/v) NaN3) is used for this assay. The IC50 is determined by combining in appropriate wells of a Costar half-area microtiter plate 25 μl human factor Xa (Enzyme Research Laboratories, Inc.; South Bend, Ind.) in TBS-PEG; 40 μl 10% (v/v) DMSO in TBS-PEG (uninhibited control) or various concentrations of the compound to be tested diluted in 10% (v/v) DMSO in TBS-PEG; and substrate S-2765 (N-benzyloxycarbonyl-D-Arg-Gly-L-Arg-p-nitroanilide; Kabi Pharmacia, Inc.; Franklin Ohio) in TBS-PEG.
The assays are performed by pre-incubating the compound of formula I plus enzyme for 10 min, then the assay is initiated by adding substrate to obtain a final volume of 100 μl. The initial velocity of chromogenic substrate hydrolysis is measured by the change in absorbance at 405 nm using a Bio-tek Instruments kinetic plate reader (Ceres UV900HDi) at 25° C. during the linear portion of the time course (usually 1.5 min after addition of substrate). The concentration of inhibitor that causes a 50% decrease in the rate of substrate hydrolysis is predicted by linear regression after plotting the relative rates of hydrolysis (compared to the uninhibited control) versus the log of the compound of formula I concentration. The enzyme concentration is 0.5 nM and substrate concentration is 140 μM.

factor Xa, sequence (P00742 235-488 limits assumed): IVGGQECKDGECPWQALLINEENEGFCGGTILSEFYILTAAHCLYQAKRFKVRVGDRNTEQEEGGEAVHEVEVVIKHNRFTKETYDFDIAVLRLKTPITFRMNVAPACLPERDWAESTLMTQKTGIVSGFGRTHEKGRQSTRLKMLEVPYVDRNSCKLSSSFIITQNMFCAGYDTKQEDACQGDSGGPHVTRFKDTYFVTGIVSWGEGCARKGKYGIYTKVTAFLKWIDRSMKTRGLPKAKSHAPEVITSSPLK
factor Xa, sequence (P00742 41-179 partner limits assumed): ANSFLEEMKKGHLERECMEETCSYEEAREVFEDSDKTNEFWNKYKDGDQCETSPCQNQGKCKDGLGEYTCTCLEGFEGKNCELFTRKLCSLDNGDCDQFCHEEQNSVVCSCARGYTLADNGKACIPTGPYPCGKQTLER

Row | Compound | Ki
1 | N=C(N)NCCC[C@H](NC(=O)[C@H](Cc1ccccc1)NC(=O)C(Cc1ccc(C(=N)N)cc1)C(=O)N1CCOCC1)C(N)=O (mixture of isomers) [Example 43, 2-(S)-{2-(S)-[2-(R,S)-(4-Carbamimidoyl-benzyl)-3-morpholin-4-yl-3-oxo-propionyl-amino]-3-phenyl-propionylamino}-5-guanidino-pentanoic acid amide trisfluoroacetic acid salt] | 190 nM
2 | N=C(N)NCCCC(NC(=O)C(NC(=O)C(Cc1ccc(C(=N)N)cc1)C(=O)N1CCCCC1)C1CCCCC1)C(N)=O (single isomer, unassigned; less polar) [Example 27] | 3.5 nM
3 | CN(C)C(=O)C(Cc1ccc(C(=N)N)cc1)C(=O)N[C@H](C(=O)NCCc1ccc(Cl)c(Cl)c1)C1CCCCC1 (mixture of isomers) [Example 59, 2-(R,S)-(4-Carbamimidoyl-benzyl)-N-{(S)-cyclohexyl-[2-(3,4-dichloro-phenyl)-ethylcarbamoyl]-methyl}-N′,N′-dimethyl-malonamide acetic acid salt] | 5230 nM
4 | CN(C)C(=O)C(Cc1ccc(C(=N)N)cc1)C(=O)N[C@H](C(=O)NCC1CCC(C(=N)N)CC1)C1CCCCC1 (stereo partly drawn) [Example 116, 2-(4-Carbamimidoyl-benzyl)-N-{(S)-[(4-carbamimidoyl-cyclohexylmethyl)-carbamoyl]-cyclohexyl-methyl}-N′,N′-dimethyl-malonamide] | 2 nM
5 | CN(C)C(=O)C(Cc1ccc(C(=N)N)cc1)C(=O)N[C@H](C(=O)NCc1ccc(C(=N)N)cc1)C1CCCCC1 (mixture of isomers) [Example 4, 2-(R,S)-(4-Carbamimidoyl-benzyl)-N-[(4-carbamimidoyl-benzylcarbamoyl)-(S)-cyclohexyl-methyl]-N′,N′-dimethyl-malonamide Hydrochloric Acid Salt] | 6 nM
6 | CN(C)C(=O)C(Cc1ccc(C(=N)N)cc1)C(=O)NC(C(=O)NCc1cccc(C(N)=O)c1)C1CCCCC1 [Example 69, 2-(R,S)-(4-Carbamimidoyl-benzyl)-N-[((S)-3-carbamoyl-benzylcarbamoyl)-cyclohexyl-methyl]-N′,N′-dimethyl-malonamide hydrochloric acid salt] | 780 nM
7 | N=C(N)NCCC[C@H](NC(=O)[C@@H](NC(=O)C(Cc1ccc(C(=N)N)cc1)C(=O)N1CCOCC1)C1CCCCC1)C(N)=O (mixture of isomers) [Example 41, 2-(S)-{2-(S)-[2-(R,S)-(4-Carbamimidoyl-benzyl)-3-morpholin-4-yl-3-oxo-propionyl-amino]-2-cyclohexyl-acetylamino}-5-guanidino-pentanoic acid amide trifluoroacetic acid salt] | 6.2 nM
8 | CCC(=N)N1CCC(CNC(=O)C(NC(=O)C(Cc2ccc(C(=N)N)cc2)C(=O)N(C)Cc2ccccc2)C2CCCCC2)CC1 (single isomer, unassigned; less polar) [Example 126] | 35 nM
9 | CC(C)(C)[C@H](NC(=O)C(Cc1ccc(C(=N)N)cc1)C(=O)N1CCOCC1)C(=O)N[C@@H](CCCNC(=N)N)C(N)=O (mixture of isomers) [Example 40, 2-(S)-{2-(S)-[2-(R,S)-(4-Carbamimidoyl-benzyl)-3-morpholin-4-yl-3-oxo-propionyl-amino]-3,3-dimethyl-butyrylamino}-5-guanidino-pentanoic acid amide trifluoroacetic acid salt] | 500 nM
10 | CN(C)C(=O)[C@@H](Cc1ccc(C(=N)N)cc1)C(=O)N[C@H](C(=O)NCC1CCN(C(=N)N)CC1)C1CCCCC1 [Example 113, 2-(S)-(4-Carbamimidoyl-benzyl)-N-{(S)-[(1-carbamimidoyl-piperidin-4-ylmethyl)-carbamoyl]-cyclohexyl-methyl}-N′,N′-dimethyl-malonamide hydrochloric acid salt, less polar diastereomer] | 3 nM
11 | N=C(N)NCCC[C@H](NC(=O)[C@@H](NC(=O)C(Cc1ccc(C(=N)N)cc1)C(=O)N1CCOCC1)c1ccccc1)C(N)=O (mixture of isomers) [Example 23, 2-(S)-{2-(S)-[2-(R,S)-(4-Carbamimidoyl-benzyl)-3-morpholin-4-yl-3-oxo-propionyl-amino]-2-phenyl-acetylamino}-5-guanidino-pentanoic acid amide trifluoroacetic acid salt] | 13 nM
12 | CN(Cc1ccccc1)C(=O)[C@@H](Cc1ccc(C(=N)N)cc1)C(=O)N[C@H](C(=O)NCC1CCN(C(=N)N)CC1)C1CCCCC1 (single isomer, unassigned; less polar) [Example 112] | 1 nM
13 | CN(C)C(=O)C(Cc1ccc(C(=N)N)cc1)C(=O)N[C@H](C(=O)NC(C(=O)N1CCCC1)c1ccc(NC(=N)N)cc1)C1CCCCC1 (mixture of isomers) [Example 96, 2-(R,S)-(4-Carbamimidoyl-benzyl)-N-{(S)-cyclohexyl-[1-(4-guanidino-phenyl)-2-oxo-2-pyrrolidin-1-yl-ethylcarbamoyl]-methyl}-N′,N′-dimethyl-malonamide hydrochloric acid salt] | 960 nM
14 | CCC(=N)N1CCC(CNC(=O)C(NC(=O)C(Cc2ccc(C(=N)N)cc2)C(=O)N(C)Cc2ccccc2)C2CCCCC2)CC1 (single isomer, unassigned; more polar) [Example 125] | 6 nM
15 | N=C(N)NCCCC(NC(=O)C(NC(=O)C(Cc1ccc(C(=N)N)cc1)C(=O)N1CCCCC1)C1CCCCC1)C(N)=O (single isomer, unassigned; more polar) [Example 28] | 2000 nM
16 | CN(C)C(=N)c1ccc(CC(C(=O)NC(C(=O)NCC2CCC(C(=N)N(C)C)CC2)C2CCCCC2)C(=O)N(C)C)cc1 [Example 120, N-(S)-(Cyclohexyl-{[4-(N,N-dimethyl-carbamimidoyl)-cyclohexylmethyl]-carbamoyl}-methyl)-2-[4-(N,N-dimethyl-carbamimidoyl)-benzyl]-N′,N′-dimethyl-malonamide] | 6 nM
17 | CC(=O)NCc1cccc(CNC(=O)[C@@H](NC(=O)C(Cc2ccc(C(=N)N)cc2)C(=O)N(C)C)C2CCCCC2)c1 (stereo partly drawn) [Example 67, N-{[(S)-3-(Acetylamino-methyl)-benzylcarbamoyl]-cyclohexyl-methyl}-2-(R,S)-(4-carbamimidoyl-benzyl)-N′,N′-dimethyl-malonamide trifluoroacetic acid salt] | 260 nM
18 | N=C(N)c1ccc(CNC(=O)[C@@H](NC(=O)C(Cc2ccc(C(=N)N)cc2)C(=O)NCc2ccccc2)C2CCCCC2)cc1 (single isomer, unassigned; less polar) [Example 101] | 37 nM
19 | CN(C)C(=O)C(Cc1ccc(C(=N)N)cc1)C(=O)N[C@H](C(=O)NCCCCNC(=N)N)C1CCCCC1 (mixture of isomers) [Example 88, 2-(R,S)-(4-Carbamimidoyl-benzyl)-N-[(S)-cyclohexyl-(4-guanidino-butyl-carbamoyl)-methyl]-N′,N′-dimethyl-malonamide sulfuric acid salt] | 54 nM
20 | CCOC(=O)C(Cc1cccc2ccccc12)NC(=O)[C@@H](NC(=O)C(Cc1ccc(C(=N)N)cc1)C(=O)N(C)Cc1ccccc1)C1CCCCC1 (single isomer, unassigned; more polar) [Example 107] | 2760 nM
21 | CCCC[C@H](NC(=O)C(Cc1ccc(C(=N)N)cc1)C(=O)N1CCOCC1)C(=O)N[C@@H](CCCNC(=N)N)C(N)=O (stereo partly drawn) [Example 16, 2-(S)-[2-(R,S)-(4-Carbamimidoyl-benzyl)-3-morpholin-4-yl-3-oxo-propionyl-amino]-hexanoic acid(1-(S)-carbamoyl-4-guanidino-butyl)-amide trifluoroacetic acid salt] | 26 nM
